Earlier results on 2 compounds are cited in patent US20080009496A1, “MUTAGENIC HETEROCYCLES” (Koronis Pharmaceuticals, Inc., priority 2003, published 2008).

One data set relates to HIV. The settings on record: in vitro.
The conditions of data set [1]: deamination product of 5-aza-dC.

Molecules are shown by their SMILES.

Regarding `Nc1ncn([C@H]2C[C@H](O)[C@@H](CO)O2)c(=O)n1` [5-aza-dC, 5-aza-2′-deoxycytidine], the “inhibition of HIV replication” value with HIV is reported as “inhibit HIV replication in vitro”.

As for `O=c1ncn([C@H]2C[C@H](O)[C@@H](CO)O2)c(=O)[nH]1` [5-aza-dU, 5-aza-2′-deoxyuridine], in data set [1], the antineoplastic activity entry is “loss of antineoplastic activity”.
